Laboratory results reported in publication PMC10046369, “Low-Affinity/High-Selectivity Dopamine Transport Inhibition Sufficient to Rescue Cognitive Functions in the Aging Rat” (Biomolecules, 2023).

How the values were obtained:
Assay in all cases: biochemical
Design in all cases: KINOMEscan competition binding panel, per cent of control
Conditions in all cases: read-out: %Ctrl @ 2800nM
[1] = target: RET(M918T) (Homo sapiens, UniProt P07949, M918T)
Procedure, shortened: (§1)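 Values are expressed as percent of control, calculated as ((test − positive control)/(negative control − positive control)) × 100, so lower numbers mean stronger hits. Binding was measured by KINOMEscan competition assay in a 450-kinase human panel including disease mutants, using the contractor's validated protocol.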

[2] = target: IRAK3 (Homo sapiens, UniProt Q9Y616)
Sequence of IRAK3 (Q9Y616 whole entry): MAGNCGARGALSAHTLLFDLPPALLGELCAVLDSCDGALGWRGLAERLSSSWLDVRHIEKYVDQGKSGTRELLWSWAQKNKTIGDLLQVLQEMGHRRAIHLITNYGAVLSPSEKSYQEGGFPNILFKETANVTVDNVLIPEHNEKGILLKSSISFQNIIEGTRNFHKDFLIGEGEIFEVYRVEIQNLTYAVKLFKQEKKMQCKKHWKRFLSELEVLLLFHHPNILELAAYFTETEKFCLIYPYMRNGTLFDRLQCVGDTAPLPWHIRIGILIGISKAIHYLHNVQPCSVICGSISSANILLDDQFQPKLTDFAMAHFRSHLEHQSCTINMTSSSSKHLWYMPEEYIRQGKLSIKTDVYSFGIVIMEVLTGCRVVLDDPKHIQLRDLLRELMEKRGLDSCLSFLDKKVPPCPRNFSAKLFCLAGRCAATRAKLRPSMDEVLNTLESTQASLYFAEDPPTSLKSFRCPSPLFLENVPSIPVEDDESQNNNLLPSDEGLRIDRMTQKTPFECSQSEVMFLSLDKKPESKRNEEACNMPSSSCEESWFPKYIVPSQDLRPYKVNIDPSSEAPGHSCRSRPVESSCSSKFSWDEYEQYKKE
Procedure, shortened: as §1

[3] = target: T1, TRKB (Homo sapiens, UniProt Q16620)
T1 construct: gene NTRK2
Procedure, shortened: as §1

[4] = target: T2, MST3 (Homo sapiens, UniProt Q9Y6E0)
T2 construct: gene STK24
Procedure, shortened: as §1

[5] = target: CSNK1G2 (Homo sapiens, UniProt P78368)
Procedure, shortened: as §1

[6] = target: RIOK2 (Homo sapiens, UniProt Q9BVS4)
Procedure, shortened: as §1

[7] = target: HCK (Homo sapiens, UniProt P08631)
Procedure, shortened: as §1

[8] = target: NEK10 (Homo sapiens, UniProt Q6ZWH5)
Sequence of NEK10 (Q6ZWH5 whole entry): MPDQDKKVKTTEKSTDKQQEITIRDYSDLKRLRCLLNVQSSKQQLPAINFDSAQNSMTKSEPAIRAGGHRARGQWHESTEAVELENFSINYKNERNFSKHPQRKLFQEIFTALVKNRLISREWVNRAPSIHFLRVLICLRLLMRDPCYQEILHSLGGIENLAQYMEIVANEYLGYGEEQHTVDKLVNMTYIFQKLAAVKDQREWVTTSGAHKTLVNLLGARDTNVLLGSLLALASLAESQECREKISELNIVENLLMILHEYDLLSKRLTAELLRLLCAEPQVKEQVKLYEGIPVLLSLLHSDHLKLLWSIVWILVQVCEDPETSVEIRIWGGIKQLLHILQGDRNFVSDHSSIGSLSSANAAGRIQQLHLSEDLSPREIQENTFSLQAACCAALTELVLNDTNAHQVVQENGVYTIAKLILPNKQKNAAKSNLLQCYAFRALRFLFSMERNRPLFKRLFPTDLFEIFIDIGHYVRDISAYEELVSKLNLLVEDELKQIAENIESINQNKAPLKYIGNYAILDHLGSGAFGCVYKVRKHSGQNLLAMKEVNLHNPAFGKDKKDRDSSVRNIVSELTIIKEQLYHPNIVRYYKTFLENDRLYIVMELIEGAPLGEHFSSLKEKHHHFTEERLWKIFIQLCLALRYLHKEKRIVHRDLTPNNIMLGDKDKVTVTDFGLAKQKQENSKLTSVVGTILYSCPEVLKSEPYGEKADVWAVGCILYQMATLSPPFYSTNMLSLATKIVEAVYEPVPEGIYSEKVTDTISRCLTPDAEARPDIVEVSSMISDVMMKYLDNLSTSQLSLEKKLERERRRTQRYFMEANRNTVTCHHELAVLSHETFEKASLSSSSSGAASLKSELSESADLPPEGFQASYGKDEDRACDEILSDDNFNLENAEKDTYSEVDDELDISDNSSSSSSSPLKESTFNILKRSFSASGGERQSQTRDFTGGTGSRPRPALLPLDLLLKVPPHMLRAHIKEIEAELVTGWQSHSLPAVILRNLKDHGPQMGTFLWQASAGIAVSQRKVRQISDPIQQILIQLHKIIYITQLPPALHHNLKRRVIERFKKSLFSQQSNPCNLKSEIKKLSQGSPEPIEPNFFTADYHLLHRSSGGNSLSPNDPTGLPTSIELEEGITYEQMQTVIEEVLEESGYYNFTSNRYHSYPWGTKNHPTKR
Procedure, shortened: as §1

[9] = target: T3, DCAMKL2 (Homo sapiens, UniProt Q8N568)
T3 construct: gene DCLK2
T3 sequence (Q8N568 whole entry): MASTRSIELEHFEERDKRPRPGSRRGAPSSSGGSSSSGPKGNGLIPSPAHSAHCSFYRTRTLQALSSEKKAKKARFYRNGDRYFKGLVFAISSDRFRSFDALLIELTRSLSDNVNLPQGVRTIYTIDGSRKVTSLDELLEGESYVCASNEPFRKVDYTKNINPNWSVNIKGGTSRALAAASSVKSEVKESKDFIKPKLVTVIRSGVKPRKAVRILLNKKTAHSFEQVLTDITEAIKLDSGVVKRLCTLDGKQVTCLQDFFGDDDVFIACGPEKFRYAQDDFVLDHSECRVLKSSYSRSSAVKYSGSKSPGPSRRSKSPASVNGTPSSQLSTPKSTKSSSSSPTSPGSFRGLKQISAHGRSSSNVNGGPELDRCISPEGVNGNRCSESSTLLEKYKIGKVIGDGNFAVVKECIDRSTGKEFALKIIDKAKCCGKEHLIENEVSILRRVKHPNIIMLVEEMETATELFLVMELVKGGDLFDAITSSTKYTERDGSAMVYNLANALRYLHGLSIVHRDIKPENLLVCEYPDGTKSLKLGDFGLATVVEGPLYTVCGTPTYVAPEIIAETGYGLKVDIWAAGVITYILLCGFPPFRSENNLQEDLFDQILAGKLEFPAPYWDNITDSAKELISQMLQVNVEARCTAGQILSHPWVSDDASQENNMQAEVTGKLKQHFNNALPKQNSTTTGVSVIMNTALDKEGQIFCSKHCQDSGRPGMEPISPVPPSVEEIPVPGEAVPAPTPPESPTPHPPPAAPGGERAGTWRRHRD
Procedure, shortened: as §1

[10] = target: NEK4 (Homo sapiens, UniProt P51957)
Sequence of NEK4 (P51957 whole entry): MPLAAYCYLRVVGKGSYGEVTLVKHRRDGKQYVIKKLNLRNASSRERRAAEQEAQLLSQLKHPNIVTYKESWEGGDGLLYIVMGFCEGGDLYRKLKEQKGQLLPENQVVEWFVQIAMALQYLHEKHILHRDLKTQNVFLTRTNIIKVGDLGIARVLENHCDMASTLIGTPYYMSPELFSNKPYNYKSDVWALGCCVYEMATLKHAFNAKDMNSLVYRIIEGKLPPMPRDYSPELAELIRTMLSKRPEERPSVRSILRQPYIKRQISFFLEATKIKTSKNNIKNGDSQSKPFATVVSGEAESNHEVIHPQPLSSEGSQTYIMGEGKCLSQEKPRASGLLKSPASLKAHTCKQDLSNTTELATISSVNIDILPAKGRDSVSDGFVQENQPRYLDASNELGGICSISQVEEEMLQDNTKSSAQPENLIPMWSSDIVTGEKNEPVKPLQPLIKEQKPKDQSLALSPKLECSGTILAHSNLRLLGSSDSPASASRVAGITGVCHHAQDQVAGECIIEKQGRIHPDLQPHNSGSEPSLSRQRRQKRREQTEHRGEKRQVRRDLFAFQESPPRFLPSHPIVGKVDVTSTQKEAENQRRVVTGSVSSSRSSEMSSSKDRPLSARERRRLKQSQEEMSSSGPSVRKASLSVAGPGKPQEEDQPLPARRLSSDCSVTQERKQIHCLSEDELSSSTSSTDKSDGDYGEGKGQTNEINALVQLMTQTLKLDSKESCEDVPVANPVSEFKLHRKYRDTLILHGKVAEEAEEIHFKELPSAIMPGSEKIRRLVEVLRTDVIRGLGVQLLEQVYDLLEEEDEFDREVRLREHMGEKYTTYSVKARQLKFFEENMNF
Procedure, shortened: as §1

[11] = target: DYRK2 (Homo sapiens, UniProt Q92630)
Sequence of DYRK2 (Q92630 whole entry): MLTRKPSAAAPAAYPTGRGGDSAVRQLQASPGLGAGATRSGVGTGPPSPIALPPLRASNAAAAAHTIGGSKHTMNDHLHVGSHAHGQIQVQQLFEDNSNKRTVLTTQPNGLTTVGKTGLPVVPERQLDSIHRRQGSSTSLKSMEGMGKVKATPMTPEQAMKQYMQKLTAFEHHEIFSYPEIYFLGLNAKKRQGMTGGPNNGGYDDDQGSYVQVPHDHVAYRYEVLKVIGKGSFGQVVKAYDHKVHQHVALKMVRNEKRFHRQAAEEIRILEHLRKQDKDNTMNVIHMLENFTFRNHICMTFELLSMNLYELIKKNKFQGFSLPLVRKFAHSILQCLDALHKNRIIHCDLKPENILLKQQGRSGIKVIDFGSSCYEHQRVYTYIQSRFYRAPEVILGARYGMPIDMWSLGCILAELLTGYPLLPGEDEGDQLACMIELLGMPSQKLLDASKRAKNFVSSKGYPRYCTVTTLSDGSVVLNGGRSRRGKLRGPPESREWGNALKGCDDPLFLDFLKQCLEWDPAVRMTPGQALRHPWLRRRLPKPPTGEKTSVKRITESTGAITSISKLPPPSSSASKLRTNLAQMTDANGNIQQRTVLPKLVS
Procedure, shortened: as §1

[12] = target: PKN1 (Homo sapiens, UniProt Q16512)
Procedure, shortened: as §1

[13] = target: INSRR (Homo sapiens, UniProt P14616)
Procedure, shortened: as §1

[14] = target: T4, DCAMKL1 (Homo sapiens, UniProt O15075)
T4 construct: gene DCLK1
Procedure, shortened: as §1

[15] = target: T5, PKAC-beta (Homo sapiens, UniProt P22694)
T5 construct: gene PRKACB
Procedure, shortened: as §1

[16] = target: FLT3(ITD,D835V) (Homo sapiens, UniProt P36888, D835V/ITD)
Procedure, shortened: as §1

[17] = target: T6, PIK4CB (Homo sapiens, UniProt Q9UBF8)
T6 construct: gene PI4KB
Procedure, shortened: as §1

[18] = target: HIPK4 (Homo sapiens, UniProt Q8NE63)
Procedure, shortened: as §1

[19] = target: PIK3C2G (Homo sapiens, UniProt O75747)
Procedure, shortened: as §1

[20] = target: CLK3 (Homo sapiens, UniProt P49761)
Procedure, shortened: as §1

[21] = target: T7, NDR2 (Homo sapiens, UniProt Q9Y2H1)
T7 construct: gene STK38L
Procedure, shortened: as §1

[22] = target: PIK3CG (Homo sapiens, UniProt P48736)
Procedure, shortened: as §1

[23] = target: SYK (Homo sapiens, UniProt P43405)
Procedure, shortened: as §1

[24] = target: FGFR2 (Homo sapiens, UniProt P21802)
Sequence of FGFR2 (P21802 whole entry): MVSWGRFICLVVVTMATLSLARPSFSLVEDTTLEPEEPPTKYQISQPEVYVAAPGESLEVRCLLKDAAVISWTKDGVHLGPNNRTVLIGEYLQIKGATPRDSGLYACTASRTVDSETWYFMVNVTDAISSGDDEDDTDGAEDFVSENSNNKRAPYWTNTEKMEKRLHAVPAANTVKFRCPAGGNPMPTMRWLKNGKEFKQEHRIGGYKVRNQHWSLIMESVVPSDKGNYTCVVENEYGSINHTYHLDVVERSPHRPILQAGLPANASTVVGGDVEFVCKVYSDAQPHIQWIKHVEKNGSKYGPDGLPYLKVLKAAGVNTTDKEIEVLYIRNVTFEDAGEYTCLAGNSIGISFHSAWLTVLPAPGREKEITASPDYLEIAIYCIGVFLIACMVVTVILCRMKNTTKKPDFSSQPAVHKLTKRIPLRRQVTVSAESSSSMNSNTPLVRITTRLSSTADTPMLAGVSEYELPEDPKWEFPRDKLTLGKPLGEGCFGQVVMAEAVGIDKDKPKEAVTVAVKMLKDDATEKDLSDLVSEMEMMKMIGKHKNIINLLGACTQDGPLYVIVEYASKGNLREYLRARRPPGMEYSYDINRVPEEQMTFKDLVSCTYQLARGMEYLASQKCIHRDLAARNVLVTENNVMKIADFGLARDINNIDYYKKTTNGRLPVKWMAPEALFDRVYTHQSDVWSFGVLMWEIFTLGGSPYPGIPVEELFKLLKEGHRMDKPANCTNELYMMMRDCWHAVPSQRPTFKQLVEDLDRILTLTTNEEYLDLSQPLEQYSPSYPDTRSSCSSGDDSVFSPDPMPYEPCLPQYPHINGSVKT
Procedure, shortened: as §1

[25] = target: SLK (Homo sapiens, UniProt Q9H2G2)
Procedure, shortened: as §1

[26] = target: PAK2 (Homo sapiens, UniProt Q13177)
Procedure, shortened: as §1

[O-][S@@+](Cc1cncs1)C(c1ccccc1)c1ccccc1 [S-CE-123, (S)-5-((Benzhydrylsulfinyl)Methyl)Thiazole]
remaining binding at 2.8 µM [1]: 89% | remaining binding at 2.8 µM [2]: 96% | remaining binding at 2.8 µM [3]: 100% | remaining binding at 2.8 µM [4]: 87% | remaining binding at 2.8 µM [5]: 94% | remaining binding at 2.8 µM [6]: 99% | remaining binding at 2.8 µM [7]: 99% | remaining binding at 2.8 µM [8]: 100% | remaining binding at 2.8 µM [9]: 97% | remaining binding at 2.8 µM [10]: 83% | remaining binding at 2.8 µM [11]: 86% | remaining binding at 2.8 µM [12]: 100% | remaining binding at 2.8 µM [13]: 94% | remaining binding at 2.8 µM [14]: 100% | remaining binding at 2.8 µM [15]: 100% | remaining binding at 2.8 µM [16]: 100% | remaining binding at 2.8 µM [17]: 94% | remaining binding at 2.8 µM [18]: 100% | remaining binding at 2.8 µM [19]: 66% | remaining binding at 2.8 µM [20]: 95% | remaining binding at 2.8 µM [21]: 82% | remaining binding at 2.8 µM [22]: 70% | remaining binding at 2.8 µM [23]: 100% | remaining binding at 2.8 µM [24]: 87% | remaining binding at 2.8 µM [25]: 100% | remaining binding at 2.8 µM [26]: 77%
